Measured values: the supplement of paper PMC10307832

Experiments:
Test in all cases: relative viability (nuclei count vs DMSO), 5 days (fraction); higher = more cells survive
[1] = compound: Cc1ccc(C(=O)Nc2ccc(CN3CCN(C)CC3)c(C(F)(F)F)c2)cc1C#Cc1cnc2cccnn12 [Ponatinib] + CS(=O)(=O)CCNCc1ccc(-c2ccc3ncnc(Nc4ccc(OCc5cccc(F)c5)c(Cl)c4)c3c2)o1 [Lapatinib] (partner 2 µM)
In short: (§1)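 Lung cancer cell lines were seeded in 1536-well plates and dosed by pin tool the next day, with either a single drug or a fixed anchor-drug dose combined with five library-drug doses (not always all listed) spaced in √10 steps. Five days later, one step fixed the cells and stained their nuclei (final 0.05% Triton X-100, 1% formaldehyde, 1 ug/ml Hoechst), and nuclei were counted on 4× images. Relative viability is the nuclei count in treated wells divided by the count in vehicle wells, and each value is the median of duplicate plates.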

[2] = compound: Cc1ccc(Nc2nccc(N(C)c3ccc4c(C)n(C)nc4c3)n2)cc1S(N)(=O)=O [Pazopanib] + Cc1cc(Nc2cc(N3CCN(C)CC3)nc(Sc3ccc(NC(=O)C4CC4)cc3)n2)n[nH]1 [Tozasertib] (partner 0.1 µM)
In short: as §1

[3] = compound: Cc1ccc(Nc2nccc(N(C)c3ccc4c(C)n(C)nc4c3)n2)cc1S(N)(=O)=O [Pazopanib] + Nc1ncn([C@H]2C[C@H](O)[C@@H](CO)O2)c(=O)n1 [Decitabine] (partner 2 µM)
In short: as §1

[4] = compound: Cc1ccc(C(=O)Nc2ccc(CN3CCN(C)CC3)c(C(F)(F)F)c2)cc1C#Cc1cnc2cccnn12 [Ponatinib] + O=C(c1cc(Cc2n[nH]c(=O)c3ccccc23)ccc1F)N1CCN(C(=O)C2CC2)CC1 [Olaparib] (partner 8 µM)
In short: as §1

Cell Line | relative viability ([1]; first compound 0.002 µM) | relative viability ([1]; first compound 0.006325 µM) | relative viability ([1]; first compound 0.06325 µM) | relative viability ([1]; first compound 0.2 µM) | relative viability ([2]; first compound 0.01 µM) | relative viability ([2]; first compound 0.03162 µM) | relative viability ([2]; first compound 0.1 µM) | relative viability ([2]; first compound 0.3162 µM) | relative viability ([2]; first compound 1 µM) | relative viability ([3]; first compound 0.01 µM) | relative viability ([3]; first compound 0.03162 µM) | relative viability ([3]; first compound 0.1 µM) | relative viability ([3]; first compound 0.3162 µM) | relative viability ([3]; first compound 1 µM) | relative viability ([4]; first compound 0.002 µM) | relative viability ([4]; first compound 0.006325 µM) | relative viability ([4]; first compound 0.06325 µM) | relative viability ([4]; first compound 0.2 µM)
HCC-44 | 0.969 | 0.903 | 1.12 | 1.06 | 0.872 | 0.913 | 0.926 | 0.843 | 0.78 | 0.913 | 0.949 | 0.941 | 0.984 | 1 | 0.942 | 0.997 | 0.923 | 0.929
HCC-78 | 0.74 | 0.709 | 0.597 | 0.63 | 0.334 | 0.429 | 0.472 | 0.517 | 0.415 |  | 0.729 | 0.648 | 0.691 | 0.818 | 0.836 | 0.819 | 0.825 | 0.726
HCC-366 | 1.01 | 1.01 | 1.08 | 1.01 | 0.124 | 0.132 | 0.0845 | 0.163 | 0.068 | 0.384 | 0.302 | 0.378 | 0.326 | 0.473 | 0.323 | 0.382 | 0.482 | 0.328
HCC-827 | 0.214 | 0.186 | 0.202 | 0.184 | 0.436 | 0.44 | 0.42 | 0.414 | 0.433 | 0.333 | 0.322 | 0.293 | 0.355 | 0.348 | 0.719 | 0.644 | 0.709 | 0.687
HOP-62 | 0.929 | 0.987 | 0.856 | 0.91 | 0.366 | 0.388 | 0.307 | 0.431 | 0.286 | 0.208 | 0.238 | 0.228 | 0.288 | 0.196 | 0.313 | 0.172 | 0.211 | 0.355
IA-LM | 0.897 | 0.67 | 0.77 | 0.721 |  |  |  |  |  |  |  |  |  |  | 0.705 | 0.835 | 0.785 | 0.646
LC-2-ad | 0.969 | 0.697 | 0.49 | 0.495 | 0.469 | 0.444 | 0.516 | 0.467 | 0.471 | 0.88 | 0.644 | 0.915 | 0.85 | 0.776 | 0.764 | 0.762 | 0.781 | 0.713
LCLC-97TM1 |  | 1 |  | 0.786 | 0.222 | 0.221 | 0.185 | 0.195 | 0.166 |  | 0.229 | 0.247 | 0.223 | 0.237 | 0.48 | 0.452 | 0.385 | 0.334
LCLC-103H |  |  |  |  | 0.456 | 0.464 | 0.46 | 0.467 | 0.479 | 0.653 | 0.708 | 0.735 | 0.682 | 0.679 | 0.754 | 0.743 | 0.838 | 0.694
NCI-H441 |  |  |  |  | 0.798 | 0.683 | 0.784 | 0.558 | 0.518 | 0.239 | 0.272 | 0.229 | 0.257 | 0.252 | 0.437 | 0.477 | 0.578 | 0.438
NCI-H522 |  |  |  |  | 0.568 | 0.454 | 0.493 | 0.646 | 0.58 | 0.658 | 0.666 | 0.817 | 0.73 | 0.673 | 0.731 | 0.708 | 0.632 | 0.507
NCI-H1299 | 0.956 | 0.968 | 0.979 | 0.934 |  |  |  |  |  |  |  |  |  |  | 0.981 | 0.955 | 0.938 | 0.876
NCI-H1563 | 0.86 | 0.856 | 0.885 | 0.727 |  |  |  |  |  |  |  |  |  |  |  |  |  | 
NCI-H1623 |  |  |  |  | 0.43 | 0.455 | 0.413 | 0.46 | 0.393 |  |  |  |  |  |  |  |  | 
NCI-H1648 |  |  |  |  | 0.387 | 0.57 | 0.398 | 0.459 | 0.476 |  |  | 0.528 | 0.568 | 0.46 | 0.49 | 0.897 | 0.572 | 0.51
NCI-H1703 | 0.989 | 0.787 | 0.339 | 0.313 |  |  |  |  |  |  |  |  |  |  | 0.37 | 0.449 | 0.262 | 0.207
NCI-H1792 | 0.854 | 0.85 | 0.92 | 0.847 |  |  |  |  |  |  | 0.549 | 0.456 | 0.621 | 0.524 | 0.44 | 0.587 | 0.489 | 0.313
NCI-H2228 | 1.07 | 1.51 | 1.15 | 1.13 | 0.265 | 0.271 | 0.265 | 0.26 | 0.302 |  |  |  |  |  | 0.622 | 0.57 | 0.823 | 0.566
NCI-H2342 |  |  |  |  | 0.481 | 0.554 | 0.544 | 0.496 | 0.388 | 0.678 | 0.684 | 0.918 | 0.612 | 0.697 | 0.473 | 0.483 | 0.424 | 0.467
SW 900 |  |  |  |  | 0.556 | 0.443 | 0.495 | 0.578 | 0.53 | 0.516 | 0.453 |  | 0.462 | 0.505 | 0.958 | 0.867 | 0.95 | 0.725
